Columns and labels:
TLR4 = test: Endotoxin/TLR4 signaling block in non-diabetic donor blood challenged with endotoxin in vitro; format: cell-based, human; conditions: 1 hour pretreatment, polymyxin 50 μg/ml or CLI-095; endotoxin 10 ng/ml 2 hours
Method: (§1) (A) Blood samples from a non-diabetic (N) and a type 2 diabetic patient were separated into plasma and cellular fractions (cellular F.) and mutually exchanged. Thus, plasma derived from the non-diabetic donor was added to the diabetic patient cellular fraction, and vice versa. Leukocytes were isolated at indicated time post-exchange, lysed and analyzed by immunoblotting. (B) Blood samples from a non-diabetic donor were treated with insulin (0.1 unit/ml) for the indicated time (lanes 1-7) or with endotoxin for 2 hours (lane 8) (C) Blood samples from a non-diabetic donor were untreated (UN) or treated for 1 hour with polymyxin (50 μg/ml) or CL-095 (30 μM). Endotoxin (Endo; 10 ng/ml) was next added to specified samples (lanes 2-4). Leukocytes were isolated 2 hours tater. (D and E) Blood samples obtained from a non-diabetic donor and two type 2 diabetic patients (identified as diabetic 1 and diabetic 2) were all separated into plasma and cellular fraction. The cellular fractions were either untreated (lane 4) or treated with polymyxin (lanes 5 and 8) or CLI-095 (lanes 6 and 9) for 1 hour. The samples shown in lanes 1-3 were not subjected to plasma exchange. (D) Plasma derived from diabetic 1 (lanes 4-6) or diabetic 2 (lanes 7-9) was added to the non-diabetic donor cellular fractions and (E) vice versa. The leukocytes were isolated at 4 hours post-exchange. Samples were analyzed as in (A).
(§2) Endotoxin (lipopolysaccharide from Escherichia coli 0111B4, Sigma, 10 ng/ml). Insulin (Humalog Mix 50/50; Lilly) was used at the indicated concentrations (0.05-1 unit/ml), Polymyxin (Invivogen, 50 μg/ml), CLI-095 (Invivogen; 3 μM), LY294002 (Cayman Chemical; 10 μM), Rapamycin (Tocris Bioscience; 100 nM), YC-1 (Sigma; 30 μM), Acriflavine (ACF; Sigma; 5 μM)
(§3) Human Subjects were enrolled in the study following the Institutional Review Board of Rutgers Robert Wood Johnson Medical School approval. Written informed consent was obtained from all participates prior to inclusion in the study. Blood was drawn into EDTA-containing tubes. To isolate leukocytes, lysis buffer (bicarbonate-buffered ammonium chloride solution, 0.826% NH4Cl, 0.1% KHCO3, 0.0037% Na4EDTA in H2O) was added at a ratio of 20:1 (lysis buffer/blood). Once the erythrocytes lysed, the samples were centrifuged for […] at 400×g. The leukocyte pellet was washed once with phosphate-buffered saline. The pellet was suspended in RIPA buffer (1% Triton X-100, 1% deoxycholic acid, 10 mM Tris-HCl, pH 7.2, 158 mM NaCl, 0.1% SDS, and 1 mM PMSF and complete protease inhibitor mixture (Roche Applied Science)). Lysates containing equal protein amounts were analyzed by immunoblotting. Where indicated, endotoxin, insulin, and/or inhibitors were added to the whole blood samples prior to leukocyte isolation.
To determine whether endotoxin is the component in diabetic patient plasma that regulates leukocyte activation, endotoxin/TLR4 signaling was blocked using two pharmacologic inhibitors, polymyxin and. CLI-095. Polymyxin is a natural polypeptide antibiotic that binds the lipid A moiety of endotoxin, and consequently interferes with endotoxin binding to TLR4. CLI-095, also known as TAK-242, is a specific TLR4 signaling inhibitor. As leukocytes express multiple Toll-like receptors (TLR) including TLR4, which binds endotoxin, TLR4 functions in the regulation of Akt/S6K1/mTOR axis is of interest.

[1] = test system: non-diabetic donor leukocytes; test: Plasma exchange: diabetic patient plasma added to non-diabetic donor cellular fraction; format: cell-based, human; conditions: cellular fraction treated 1 hour before exchange; leukocytes isolated 4 hours post-exchange
Method: (A) Blood samples from a non-diabetic (N) and a type 2 diabetic patient were separated into plasma and cellular fractions (cellular F.) and mutually exchanged. Thus, plasma derived from the non-diabetic donor was added to the diabetic patient cellular fraction, and vice versa. Leukocytes were isolated at indicated time post-exchange, lysed and analyzed by immunoblotting. (B) Blood samples from a non-diabetic donor were treated with insulin (0.1 unit/ml) for the indicated time (lanes 1-7) or with endotoxin for 2 hours (lane 8) (C) Blood samples from a non-diabetic donor were untreated (UN) or treated for 1 hour with polymyxin (50 μg/ml) or CL-095 (30 μM). Endotoxin (Endo; 10 ng/ml) was next added to specified samples (lanes 2-4). Leukocytes were isolated 2 hours tater. […] Samples were analyzed as in (A).
For the plasma mixing experiments, the blood samples were sedimented at unit gravity for 1.5 hours. […] The leukocytes were subsequently isolated, lysed, and analyzed by immunoblotting.
Next, non-diabetic donor leukocytes and leukocytes from two type 2 diabetic patients were either untreated, or treated with either polymyxin or CLI-095 prior to the plasma/leukocytes exchange. As shown above, pS6K1, pIRS-1, and HIF-1α expression were all detected in non-diabetic donor leukocytes following exposure to diabetic patients plasma. […]

human leukocytes = test: Ex vivo whole blood pretreated with inhibitors, then endotoxin; leukocyte Western blotting and ATP analyses; format: cell-based; conditions: for autophagy in endotoxin-treated leukocytes: FIG. 7B: LY 10 μM 30 min, RAPA 100 nM 2 hours, YC-1 30 μM 30 min, ACF 5 μM 2 hours, then endotoxin 10 ng/ml 2 hours; for endotoxin-induced AMPKα degradation (change in AMPKα expression) / endotoxin-induced autophagy (LC3-I/LC3-II) / endotoxin-induced decline in ATP levels / endotoxin-induced HIF-1α expression: whole blood treated 2 hours with inhibitor prior to endotoxin 10 ng/ml
Method: (A) Blood samples were treated with endotoxin (LPS; […]) for the indicated time. (B-D) Blood samples were untreated (control), treated for 2 hours with DMSO (vehicle), or the specified inhibitors prior to the addition of endotoxin (10 ng/ml). The inhibitors tested included: LY294002 (LY), Rapamycin (RAPA), YC-1, acriflavine (ACF), metformin (Met) and SRT1720 (SRT). Leukocytes were isolated at the indicated time post-endotoxin treatment and lysed. Lysates were subjected to Western blotting analyses, and where shown, ATP analyses. Details are provided in the supplement. (E) Proposed model for endotoxin-induced metabolic derangement in human leukocytes.
(§4) FIG. 7. provides the Toll-like receptor 4 signaling pathway in human leukocytes and the antagonistic effect of insulin. (A) Blood samples were treated with endotoxin (10 ng/ml) for the indicated time. (B) Blood samples were untreated (UN), or treated with DMSO (vehicle; 0.05%; 2 hours), LY294002 (LY; 10 μM; 30 min), rapamycin (RAPA; 100 nM, 2 ‘hours), YC-1 (30 μM; 30 min), or acriflavine (ACF; 5 μM; 2 hours). The samples shown in lanes 3-8 were subsequently treated with endotoxin (10 ng/ml) for 2 hours. (C) Blood samples were untreated (UN; lane 1), treated with endotoxin (10 ng/ml; lane 2) for 2 hours, or with insulin (1 unit/ml) for 2 hours (lane 3) or 1 hour (lane 4). The samples shown in lanes 5-9 were treated with endotoxin (10 ng/ml) plus insulin at the indicated concentration (1-0.05 unit/ml) for 2 hours, (D) Blood samples were treated with insulin (0.1 unit/ml) plus endotoxin (10ng/ml) for the indicated time, or with endotoxin alone (Endo, 10 ng/ml) for 2 hours. Leukocytes were isolated, lysed, and analyzed as described in FIG. 5. (E) Model describing the pattern of signaling indicators detected in leukocytes treated with endotoxin as compared to insulin.
To examine the signaling events linking endotoxin induced responses ex vivo with the altered metabolic/bioenergetic profile, the inventors examined the effect of pharmacological inhibitors implicated in the regulation of HIF-1α expression in other model systems. […] Furthermore, they indicate that distinct PI-3K effectors regulate HIF-1α stabilization and AMPKα degradation.
To examine the effect of metformin on human leukocytes bioenergetics, whole blood samples were pretreated with metformin ex vivo prior to the addition of endotoxin.
as §2, §3

liver = conditions: pretreatment, endotoxin challenge; cited from earlier work
[2] = diabetics treated with metformin; cited from earlier work
leukocytes = test: Insulin treatment of whole blood from non-diabetic individuals; leukocyte immunoblotting; format: cell-based, human; conditions: insulin alone 0.1 unit/ml
Method: as §1, §2, §3
To establish the nature of the circulating factor enriched, in plasma from diabetics, multiple candidates were considered. As leukocytes express insulin receptor and circulating insulin is high in many type 2 and treated type 1 diabetic patients, insulin was chosen as the primary candidate. However, the insulin-signaling pathway in leukocytes is poorly characterized.

[3] = test system: endotoxin-treated leukocytes; test: Insulin plus endotoxin in the in vitro whole blood system; leukocyte immunoblotting; format: cell-based, human
Method: as §4, §2, §3
Following food intake, especially if high in fat, human leukocytes might be exposed to increases in both insulin and endotoxin. Therefore, the combined effects of insulin and endotoxin on leukocytes were examined using the in vitro whole blood system. […] Insulin at a dose as low as 0.1 unit/ml also delayed onset of pAkt and pS6K1 in endotoxin-treated leukocytes (FIG. 7D).

[4] = insulin 0.1 unit/ml plus endotoxin 10 ng/ml
[5] = insulin higher than 0.1 unit/ml plus endotoxin 10 ng/ml, 2 hours

With `CCOC(=O)C1=CCCC[C@H]1S(=O)(=O)Nc1ccc(F)cc1Cl` [CLI-095] the “HIF-1α expression upon challenge with endotoxin” value (TLR4) was “prevented”, the “pIRS-1 upon challenge with endotoxin” value (TLR4) was “prevented” and the “pS6K1 upon challenge with endotoxin” value (TLR4) was “prevented”. The “pS6K1, pIRS-1, and HIF-1α expression following exposure to diabetic patients plasma” value [1] was “inhibited”.
For acriflavine, the “autophagy in endotoxin-treated leukocytes” value (human leukocytes) was “prevented”, the “endotoxin-induced AMPKα degradation (change in AMPKα expression)” value (human leukocytes) was “did not prevent” and the “endotoxin-induced autophagy (LC3-I/LC3-II)” value (human leukocytes) was “inhibited”. For the same compound, the “endotoxin-induced decline in ATP levels” value (human leukocytes) was “inhibited”.
For `Oc1ccc(C=Cc2cc(O)cc(O)c2)cc1` [Resveratrol, resveratrol], the “HIF-1α expression in the liver” value (liver) is given as “prevents”, the “Sirt1 degradation in the liver” value (liver) is given as “prevents” and the “autophagy in the liver” value (liver) is given as “prevents”.
In the case of `OCc1ccc(-c2nn(Cc3ccccc3)c3ccccc23)o1` [YC-1, 3-(5′-hydroxymethyl-2′-furyl)-1-benzylindazole], the “autophagy in endotoxin-treated leukocytes” value (human leukocytes) is reported as “prevented”, the “endotoxin-induced AMPKα degradation (change in AMPKα expression)” value (human leukocytes) is reported as “did not prevent” and the “endotoxin-induced autophagy (LC3-I/LC3-II)” value (human leukocytes) is reported as “inhibited”. For the same compound, the “endotoxin-induced decline in ATP levels” value (human leukocytes) was “inhibited”.
In the case of `O=C(Nc1ccccc1-c1cn2c(CN3CCNCC3)csc2n1)c1cnc2ccccc2n1` [SRT1720], the “endotoxin-induced AMPKα degradation (change in AMPKα expression)” value (human leukocytes) is reported as “did not” and the “endotoxin-induced HIF-1α expression” value (human leukocytes) is reported as “block”.
In the case of `CN(C)C(=N)N=C(N)N` [metformin], the AMPKα phosphorylation (human leukocytes; metformin alone, no endotoxin) is reported as “induced”, the “AMPKα phosphorylation (Thr 172)” value (human leukocytes; metformin pretreatment combined with endotoxin) is reported as “induced” and the “endotoxin-induced AMPKα degradation (change in AMPKα expression)” value (human leukocytes) is reported as “prevents”. The “endotoxin-induced HIF-1α expression” value (human leukocytes) was “prevents”, the “endotoxin-induced AMPKα degradation (change in AMPKα expression)” value (human leukocytes; listed as Metformin) was “inhibited” and the “endotoxin-induced HIF-1α expression” value (human leukocytes; listed as Metformin) was “inhibited”. For the same compound, the “less cancer than diabetics treated with insulin” value [2] was 25-40%.
For polymyxin, the “HIF-1α expression upon challenge with endotoxin” value (TLR4) was “prevented”, the “pIRS-1 upon challenge with endotoxin” value (TLR4) was “prevented” and the “pS6K1 upon challenge with endotoxin” value (TLR4) was “prevented”. The “pS6K1, pIRS-1, and HIF-1α expression following exposure to diabetic patients plasma” value [1] was “inhibited”.
In the case of “insulin: Insulin (Humalog Mix 50/50; Lilly)”, the Raptor dephosphorylation (leukocytes) is reported as “failed to induce”, the “increase in HIF-1α expression” value (leukocytes) is reported as “failed to induce” and the increase in autophagy (leukocytes) is reported as “failed to induce”. For the same compound, the pAkt (leukocytes) was “triggered increases”, the pIRS-1 (leukocytes) was “failed to induce” and the pS6K1 (leukocytes) was “triggered increases”. The “signaling pattern of leukocytes” value ([3]; endotoxin plus insulin at <0.1 unit/ml) was “the pattern observed in leukocytes treated with endotoxin alone”, the “onset of pAkt” value [3, 4] was “delayed onset” and the “onset of pS6K1” value [3, 4] was “delayed onset”. The HIF-1α expression [3, 5] was “suppressed”, the TLR4 expression [3, 5] was “suppressed” and the autophagy [3, 5] was “suppressed”. For the same compound, the “dephosphorylation of Raptor” value [3, 5] was “suppressed” and the pIRS-1 [3, 5] was “suppressed”.

Reference: patent US20140113306A1, “DIAGNOSTIC AND SCREENING METHODS FOR INFLAMMATION” (Rutgers, The State University of New Jersey, priority 2012, published 2014)
